Assay results from patent US11780845B2 (Relay Therapeutics, Inc., priority 2019, dated 2023).

Key:
[1] = target: FGFR2 (Homo sapiens (Human), UniProt P21802); test: Biochemical FGFR2 Caliper assay
[2] = tested on: SNU-16; test: Cell SNU-16 assay; type: cell-based
[3] = Homo sapiens, SNU-16, SNU-16 cells

FGFR2, sequence (P21802 22-821): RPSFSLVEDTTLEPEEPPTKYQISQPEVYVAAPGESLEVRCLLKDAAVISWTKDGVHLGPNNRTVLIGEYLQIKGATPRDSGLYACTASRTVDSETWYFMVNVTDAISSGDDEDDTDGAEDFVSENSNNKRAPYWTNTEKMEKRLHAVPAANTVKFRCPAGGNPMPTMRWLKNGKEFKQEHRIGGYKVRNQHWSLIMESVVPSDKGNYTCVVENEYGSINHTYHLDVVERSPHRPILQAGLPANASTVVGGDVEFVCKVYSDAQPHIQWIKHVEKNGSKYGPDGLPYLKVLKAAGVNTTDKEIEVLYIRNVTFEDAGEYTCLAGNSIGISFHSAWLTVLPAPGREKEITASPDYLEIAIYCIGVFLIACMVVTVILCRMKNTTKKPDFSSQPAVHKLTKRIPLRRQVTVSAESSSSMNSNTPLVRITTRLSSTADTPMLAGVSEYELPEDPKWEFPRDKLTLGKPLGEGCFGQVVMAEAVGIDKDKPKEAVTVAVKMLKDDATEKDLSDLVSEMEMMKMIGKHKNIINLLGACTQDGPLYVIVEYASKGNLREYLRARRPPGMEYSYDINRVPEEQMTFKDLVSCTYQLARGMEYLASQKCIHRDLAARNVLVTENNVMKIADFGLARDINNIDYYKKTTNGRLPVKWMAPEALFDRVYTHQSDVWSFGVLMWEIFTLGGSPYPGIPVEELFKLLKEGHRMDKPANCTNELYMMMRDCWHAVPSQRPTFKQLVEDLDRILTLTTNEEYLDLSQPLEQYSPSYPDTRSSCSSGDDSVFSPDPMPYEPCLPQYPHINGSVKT

Row | SMILES | IC50 [1] | IC50 [2, 3] | IC50 ([2]; SNU-16 cells)
1 | Cn1c(-c2ccc(NC(=O)CCl)cc2)c(C2=CC[C@@H](C(=O)N3CCCC3)CC2)c2c(N)ncnc21 (single isomer, unassigned) [Example 906] | < 100 nM | ≤ 100 nM | 
2 | Cc1ccnc(Oc2ccc(-c3c(C4=CCN(C(=O)[C@H]5CO5)C4)n(C)c4ncnc(N)c34)cc2)n1 (single isomer, unassigned) [Example 908] | 100 to 250 nM | ≤ 100 nM | 
3 | Cc1ccnc(Oc2ccc(-c3c(C4=CCN(C(=O)[C@@H]5CO5)C4)n(C)c4ncnc(N)c34)cc2)n1 (single isomer, unassigned) [Example 909] | 1000 to 100000 nM | 1000 to 100000 nM | 
4 | C=C(C)C(=O)Nc1ccc(-c2c(C3=CC[C@H](C(=O)N4CCCC45COC5)CC3)c3c(N)ncnc3n2C)cc1 (single isomer, unassigned) [Example 913] | < 100 nM | ≤ 100 nM | 
5 | C=C(C)C(=O)Nc1ccc(-c2c(C3=CC[C@@H](C(=O)N4CCCC45COC5)CC3)c3c(N)ncnc3n2C)cc1 (single isomer, unassigned) [Example 914] | < 100 nM | ≤ 100 nM | 
6 | Cc1ccnc(Oc2ccc(-c3c(-c4ccc(OC[C@H]5CO5)cc4)n(C)c4ncnc(N)c34)cc2)n1 (single isomer, unassigned) [Example 917] | 100 to 250 nM | 100 to 250 nM | 
7 | Cc1ccnc(Oc2ccc(-c3c(-c4ccc(OC[C@@H]5CO5)cc4)n(C)c4ncnc(N)c34)cc2)n1 (single isomer, unassigned) [Example 918] | 250 to 1000 nM | 1000 to 100000 nM | 
8 | C=C(C)C(=O)Nc1ccc(-c2c(-c3ccc4c(c3)OC[C@@H]4c3cccc(C)n3)c3c(N)ncnc3n2C)cc1 (single isomer, unassigned) [Example 919] | 100 to 250 nM | 1000 to 100000 nM | 
9 | C=C(C)C(=O)Nc1ccc(-c2c(-c3ccc4c(c3)OC[C@H]4c3cccc(C)n3)c3c(N)ncnc3n2C)cc1 (single isomer, unassigned) [Example 920] | < 100 nM | ≤ 100 nM | 
10 | C=C(C)C(=O)Nc1ccc(-c2c(N3CC[C@@H](C(=O)N4CCCC4)CC3=O)c3c(N)ncnc3n2C)cc1 (single isomer, unassigned) [Example 925] | < 100 nM | ≤ 100 nM | 
11 | C=C(C)C(=O)Nc1ccc(-c2c(N3CC[C@H](C(=O)N4CCCC4)CC3=O)c3c(N)ncnc3n2C)cc1 (single isomer, unassigned) [Example 926] | 1000 to 100000 nM | 1000 to 100000 nM | 
12 | C=CC(=O)N[C@@H]1Cc2ccc(-c3c(-c4ccc(Oc5nccc(C)n5)cc4)c4c(N)ncnc4n3C)cc2C1 (single isomer, unassigned) [Example 927] | 1000 to 100000 nM | 1000 to 100000 nM | 
13 | C=CC(=O)N[C@H]1Cc2ccc(-c3c(-c4ccc(Oc5nccc(C)n5)cc4)c4c(N)ncnc4n3C)cc2C1 (single isomer, unassigned) [Example 928] | 250 to 1000 nM | 250 to 1000 nM | 
14 | C=CC(=O)N[C@H]1CCc2cc(-c3c(-c4ccc(Oc5nccc(C)n5)cc4)c4c(N)ncnc4n3C)ccc21 (single isomer, unassigned) [Example 929] | 250 to 1000 nM | 100 to 250 nM | 
15 | C=C(C)C(=O)N1CC=C(c2c(-c3ccc(Oc4cccc(C)n4)cc3)c3c(N)ncnc3n2C)[C@H]1C (single isomer, unassigned) [Example 930] | 250 to 1000 nM | 100 to 250 nM | 
16 | C=C(C)C(=O)N1CC=C(c2c(-c3ccc(Oc4cccc(C)n4)cc3)c3c(N)ncnc3n2C)[C@@H]1C (single isomer, unassigned) [Example 931] | 250 to 1000 nM | 1000 to 100000 nM | 
17 | C=CC(=O)N1CC=C(c2c(-c3ccc(Oc4cccc(C)n4)cc3)c3c(N)ncnc3n2C)[C@H]1C (single isomer, unassigned) [Example 932] | 100 to 250 nM | 250 to 1000 nM | 
18 | C=CC(=O)N1CC=C(c2c(-c3ccc(Oc4cccc(C)n4)cc3)c3c(N)ncnc3n2C)[C@@H]1C (single isomer, unassigned) [Example 933] | < 100 nM | ≤ 100 nM | 
19 | C=C(C)C(=O)Nc1ccc(-c2c(C3=CC[C@]4(CC3)CCN(C)C4=O)c3c(N)ncnc3n2C)cc1 (single isomer, unassigned) [Example 934] | < 100 nM | ≤ 100 nM | 
20 | C=C(C)C(=O)Nc1ccc(-c2c(C3=CC[C@@]4(CC3)CCN(C)C4=O)c3c(N)ncnc3n2C)cc1 (single isomer, unassigned) [Example 935] | 1000 to 100000 nM | 1000 to 100000 nM | 
21 | C=C(C)C(=O)Nc1ccc(-c2c(C3=CC[C@@H](C(=O)N4CCCC4)C[C@H]3C)c3c(N)ncnc3n2C)cc1 (single isomer, unassigned) [Example 936] | 1000 to 100000 nM | 250 to 1000 nM | 
22 | C=C(C)C(=O)Nc1ccc(-c2c(C3=CC[C@H](C(=O)N4CCCC4)C[C@H]3C)c3c(N)ncnc3n2C)cc1 (single isomer, unassigned) [Example 938] | 1000 to 100000 nM | 1000 to 100000 nM | 
23 | C=C(C)C(=O)Nc1ccc(-c2c(C3=CC[C@H](C(=O)N4CCCC4)C[C@@H]3C)c3c(N)ncnc3n2C)cc1 (single isomer, unassigned) [Example 939] | 1000 to 100000 nM | 1000 to 100000 nM | 

Row | SMILES | IC50 [1] | IC50 [2, 3] | IC50 ([2]; SNU-16 cells)
24 | C=CC(=O)N1CC[C@@H](c2c(-c3ccc(Oc4cccc(C)n4)cc3)c3c(N)ncnc3n2C)[C@H]1C (single isomer, unassigned) [Example 940] | 1000 to 100000 nM | 1000 to 100000 nM | 
25 | C=CC(=O)N1CC[C@H](c2c(-c3ccc(Oc4cccc(C)n4)cc3)c3c(N)ncnc3n2C)[C@H]1C (single isomer, unassigned) [Example 941] | 250 to 1000 nM | 100 to 250 nM | 
26 | C=CC(=O)N[C@@H]1CCc2cc(-c3c(-c4ccc(Oc5nccc(C)n5)cc4)c4c(N)ncnc4n3C)ccc21 (single isomer, unassigned) [Example 942] | 250 to 1000 nM | 250 to 1000 nM | 
27 | C=CC(=O)N[C@@H]1CCc2ccc(-c3c(-c4ccc(Oc5nccc(C)n5)cc4)c4c(N)ncnc4n3C)cc2C1 (single isomer, unassigned) [Example 944] | 1000 to 100000 nM | 1000 to 100000 nM | 
28 | C=CC(=O)N[C@H]1CCc2ccc(-c3c(-c4ccc(Oc5nccc(C)n5)cc4)c4c(N)ncnc4n3C)cc2C1 (single isomer, unassigned) [Example 945] | 1000 to 100000 nM | 1000 to 100000 nM | 
29 | C#C[C@@H]1CCCN1C(=O)[C@H]1CC=C(c2c(-c3ccc(NC(=O)C(=C)C)cc3)n(C)c3ncnc(N)c23)CC1 (single isomer, unassigned) [Example 949] | 100 to 250 nM | 1000 to 100000 nM | 
30 | C#C[C@H]1CCCN1C(=O)[C@H]1CC=C(c2c(-c3ccc(NC(=O)C(=C)C)cc3)n(C)c3ncnc(N)c23)CC1 (single isomer, unassigned) [Example 950] | 1000 to 100000 nM | 1000 to 100000 nM | 
31 | C#C[C@@H]1CCCN1C(=O)[C@@H]1CC=C(c2c(-c3ccc(NC(=O)C(=C)C)cc3)n(C)c3ncnc(N)c23)CC1 (single isomer, unassigned) [Example 951] | 250 to 1000 nM | 100 to 250 nM | 
32 | C#C[C@H]1CCCN1C(=O)[C@@H]1CC=C(c2c(-c3ccc(NC(=O)C(=C)C)cc3)n(C)c3ncnc(N)c23)CC1 (single isomer, unassigned) [Example 953] | < 100 nM | 1000 to 100000 nM | 
33 | C=C(C)C(=O)Nc1ccc(-c2c(C3=CC[C@@H](C(=O)N4CCC[C@]45CCOC5)CC3)c3c(N)ncnc3n2C)cc1 (single isomer, unassigned) [Example 954] | < 100 nM |  | ≤ 100 nM
34 | C=C(C)C(=O)Nc1ccc(-c2c(C3=CC[C@H](C(=O)N4CCC[C@@]45CCOC5)CC3)c3c(N)ncnc3n2C)cc1 (single isomer, unassigned) [Example 955] | 1000 to 100000 nM |  | 250 to 1000 nM
35 | C=C(C)C(=O)Nc1ccc(-c2c(C3=CC[C@H](C(=O)NC4CCCC4)CC3)c3c(N)ncnc3n2C)cc1 (single isomer, unassigned) [Example 957] | 100 to 250 nM | ≤ 100 nM | 
36 | C=C(C)C(=O)Nc1ccc(-c2c(C3=CC[C@@H](C(=O)NC4CCCC4)CC3)c3c(N)ncnc3n2C)cc1 (single isomer, unassigned) [Example 958] | 250 to 1000 nM | ≤ 100 nM | 
37 | C=C(C)C(=O)Nc1ccc(-c2c(C3=CC[C@H](C(=O)N4CCC[C@@]45CCOC5)CC3)c3c(N)ncnc3n2C)cc1 (single isomer, unassigned) [Example 960] | 1000 to 100000 nM |  | 1000 to 100000 nM
38 | C=C(C)C(=O)Nc1ccc(-c2c(C3=CC[C@@H](C(=O)N4CCC[C@]45CCOC5)CC3)c3c(N)ncnc3n2C)cc1 (single isomer, unassigned) [Example 961] | 1000 to 100000 nM |  | 250 to 1000 nM
39 | C=CC(=O)Nc1ccc(-c2c(C3=CC[C@@H](C(=O)N4CCCC4)CC3)c3c(N)ncnc3n2C)cc1 (single isomer, unassigned) [Example 962] | < 100 nM | ≤ 100 nM | 
40 | C=CC(=O)Nc1ccc(-c2c(C3=CC[C@H](C(=O)N4CCCC4)CC3)c3c(N)ncnc3n2C)cc1 (single isomer, unassigned) [Example 963] | < 100 nM | ≤ 100 nM | 
41 | C=CC(=O)N[C@H]1C[C@@H]1c1c(-c2ccc(C(=O)N3CCCC3)cc2)c2c(N)ncnc2n1C (single isomer, unassigned) [Example 972] | 1000 to 100000 nM | 1000 to 100000 nM | 
42 | C=CC(=O)N[C@@H]1C[C@@H]1c1c(-c2ccc(C(=O)N3CCCC3)cc2)c2c(N)ncnc2n1C (single isomer, unassigned) [Example 973] | 250 to 1000 nM | 1000 to 100000 nM | 
43 | C=CC(=O)N[C@@H]1C[C@H]1c1c(-c2ccc(C(=O)N3CCCC3)cc2)c2c(N)ncnc2n1C (single isomer, unassigned) [Example 974] | 1000 to 100000 nM | 1000 to 100000 nM | 
44 | C=CC(=O)N[C@H]1C[C@H]1c1c(-c2ccc(C(=O)N3CCCC3)cc2)c2c(N)ncnc2n1C (single isomer, unassigned) [Example 975] | 1000 to 100000 nM | 1000 to 100000 nM | 
45 | C=C(C)C(=O)Nc1ccc(-c2c(C3=CC[C@H](C(=O)N4CCCCCC4)CC3)c3c(N)ncnc3n2C)cc1 (single isomer, unassigned) [Example 977] | < 100 nM | ≤ 100 nM | 
46 | C=C(C)C(=O)Nc1ccc(-c2c(C3=CC[C@@H](C(=O)N4CCCCCC4)CC3)c3c(N)ncnc3n2C)cc1 (single isomer, unassigned) [Example 979] | 250 to 1000 nM | 250 to 1000 nM | 
